≈ marks a conversion by molar mass, not a printed value.

The test system of one experiment is Entamoeba histolytica. The experiment can be described thus: Antiprotozoal activity against Entamoeba histolytica HM-1:IMSS trophozoites assessed as growth inhibition compound treated for 48 hrs measured 48 hrs post wash-out by MTT assay. It is filed as functional, organism-based. For orientation: Tetrazolium dyes change colour on reduction, which living cells bring about.

The test system of another experiment is Giardia intestinalis. The experiment can be described thus: Antiprotozoal activity against Giardia lamblia IMSS: 8909:1 trophozoites assessed as growth inhibition compound treated for 48 hrs measured 48 hrs post wash-out by MTT assay. It is filed as functional, organism-based. The settings on record: Giardia duodenalis, IMSS: 8909:1, 48 h.

What is called IC50 is the concentration that inhibits the measured activity by half. For the compound `C=C1C(=O)O[C@H]2/C=C(C)\C=C/[C@H]3O[C@]3(C)CC(=O)[C@@H]12`, the figures for the IC50 in the experiment with Entamoeba histolytica and with Giardia intestinalis were 34.9 µg/mL (≈ 134 µM) and 30.6 µg/mL (≈ 118 µM), respectively.

With `C=C1C(=O)O[C@H]2/C=C(C)\C=C/[C@H]3O[C@]3(C)C[C@@H](OC)[C@@H]12`, the concentration for half-maximal inhibition (IC50) with Entamoeba histolytica was determined as 29.4 µg/mL (≈ 106 µM); in the experiment on Giardia intestinalis, 35.2 µg/mL (≈ 127 µM).

On to `C=C1C(=O)O[C@H]2/C=C(C)\C=C/[C@H]3O[C@]3(C)C[C@@H](OCC)[C@@H]12`, for which the concentration for half-maximal inhibition (IC50) in the experiment with Entamoeba histolytica was 31.9 µg/mL (≈ 110 µM); with Giardia intestinalis it was 43.8 µg/mL (≈ 151 µM).

On to `C=C1C(=O)O[C@H]2/C=C(C)\C=C/[C@H]3O[C@]3(C)C[C@@H](OC(=O)CCCC)[C@@H]12`, for which the figures for the IC50 in the experiment on Entamoeba histolytica and in the experiment on Giardia intestinalis were 51.7 µg/mL (≈ 149 µM) and 58.3 µg/mL (≈ 168 µM), respectively.

Take `C=C(C)C(=O)O[C@@H]1C[C@@]2(C)O[C@@H]2/C=C\C(C)=C/[C@@H]2OC(=O)C(=C)[C@@H]21`: the concentration for half-maximal inhibition (IC50) was 32.7 µg/mL (≈ 99 µM) with Entamoeba histolytica and 44.2 µg/mL (≈ 134 µM) in the experiment on Giardia intestinalis.

Consider `C=C1C(=O)O[C@H]2/C=C(C)\C=C/[C@H]3O[C@]3(C)C[C@@H](OC(=O)C(C)C)[C@@H]12`, for which the figures for the IC50 in the experiment with Entamoeba histolytica and with Giardia intestinalis were 52.7 µg/mL (≈ 159 µM) and 62.2 µg/mL (≈ 187 µM), respectively.

Take `C=C1C(=O)O[C@H]2/C=C(C)\C=C/[C@H]3O[C@]3(C)C[C@@H](OCCC)[C@@H]12`: the IC50 worked out at 35.9 µg/mL (≈ 118 µM) with Entamoeba histolytica and 31.2 µg/mL (≈ 103 µM) in the experiment on Giardia intestinalis.

`C=C1C(=O)O[C@H]2/C=C(C)\C=C/[C@H]3O[C@]3(C)C[C@@H](OC(=O)CCC)[C@@H]12`: the IC50 with Entamoeba histolytica amounted to 49.1 µg/mL (≈ 148 µM); in the experiment with Giardia intestinalis, 51.7 µg/mL (≈ 156 µM).

As for `C=C1C(=O)O[C@H]2/C=C(C)\C=C/[C@H]3O[C@]3(C)C[C@@H](OC(=O)CC)[C@@H]12`, the results for the IC50 in the experiment with Entamoeba histolytica and in the experiment with Giardia intestinalis were 51.6 µg/mL (≈ 162 µM) and 68.8 µg/mL (≈ 216 µM), respectively.

For the compound `C=C1C(=O)O[C@H]2/C=C(C)\C=C/[C@H]3O[C@]3(C)C[C@@H](OC(C)C)[C@@H]12`, the IC50 in the experiment with Entamoeba histolytica was 28.7 µg/mL (≈ 94.3 µM); in the experiment with Giardia intestinalis, 32.7 µg/mL (≈ 107 µM).

For `C=C1C(=O)O[C@H]2/C=C(C)\C=C/[C@H]3O[C@]3(C)C[C@@H](OC(C)=O)[C@@H]12`, the IC50 in the experiment on Entamoeba histolytica was found to be 2.6 µg/mL (≈ 8.54 µM); in the experiment with Giardia intestinalis, 18.1 µg/mL (≈ 59.5 µM).

On to `C=C1C(=O)O[C@H]2/C=C(C)\C=C/[C@H]3O[C@]3(C)C[C@@H](O)[C@@H]12`, for which the results for the IC50 in the experiment on Entamoeba histolytica and with Giardia intestinalis were 138 µg/mL (≈ 525 µM) and 257 µg/mL (≈ 979 µM), respectively.

Regarding `C=C1C(=O)O[C@H]2/C=C(C)\C=C/[C@H]3O[C@]3(C)C[C@@H](OC(=O)C(F)(F)F)[C@@H]12`, the IC50 with Entamoeba histolytica was 37.7 µg/mL (≈ 105 µM); in the experiment on Giardia intestinalis, 43.3 µg/mL (≈ 121 µM).

These data come from ChEMBL document CHEMBL3352419, “Antiprotozoal activity of 8-acyl and 8-alkyl incomptine A analogs” (Bioorg Med Chem Lett, 2014).
